Legend:
[1] = n-octanol: buffer pH 7.4; cited from earlier work
[2] = Stress degradation of plain TEL drug, stability indicating HPLC method; format: physicochemical
[3] = pH 3 to 9; cited from earlier work

reduction in area (HPLC) ([2]; 1 N NaOH at 80° C. for 8 hours): 64.4% | TEL degradation ([2]; pH modifiers employed in low concentration): no TEL degradation was observed
SMILES: CCCc1nc2c(C)cc(-c3nc4ccccc4n3C)cc2n1Cc1ccc(-c2ccccc2C(=O)O)cc1 [TEL, Telmisartan]
partition coefficient, log P [1]: 3.2 | solubility [3]: poorly soluble

Reference: patent publication US10952966B2, “Pharmaceutical composition comprising solid dispersion of BCS class II drugs with Gelucires” (GATTEFOSSE INDIA PVT. LTD., priority 2014, dated 2021)
